# Assay results: patent US20060160989A1, “Polypeptide useful as antiallergic/antiasthmatic activity, methods for the preparation thereof, pharmaceutical compositions containing such polypeptide and use thereof” (COUNCIL OF SCIENTIC AND INDUSTRIAL RESEARCH, priority 2002, published 2006)
# Like-named read-outs stand apart in the source and are kept apart here.
# Experiments:
# [1] = test system: leucine *amino-peptidase; details: enzymatic hydrolysis with leucine aminopeptidase, cited from earlier work
# [2] = test system: passive cutaneous anaphylaxis (PCA); assay: Passive cutaneous anaphylaxis (PCA) test in rats; format: in vivo; details: for % Anti-PCA activity: rats
# [3] = test system: Sensitised mast cells; assay: Mast cell degranulation by egg albumin in sensitised mast cells (immunological); format: in vivo, rats
# Source text: (§1) Peptide 96/199 is related to the sequence of IgE Fc fragment.
# [4] = test system: Normal mast cells; assay: Mast cell degranulation by comp 48/80 in normal mast cells (non-immunological); format: in vivo, rats
# Source text: as §1
# [5] = test system: sensitised guinea pig ileum; assay: Antigen (egg albumin) induced contraction of sensitised guinea pig ileum (Schultz-Dale phenomenon)
# Procedure: (§2) This activity of peptide 96/199 was comarable with disodium cromoglycate (50 mg/kg ip) which is a standard antiallergic drug effective by inhalation.
# [6] = test system: normal guinea pigs; assay: Aerosol test, histamine, guinea pigs; format: in vivo
# [7] = test system: sensitised guinea pigs; assay: Aerosol test, egg-albumin, sensitised guinea pigs; format: in vivo
# Procedure: as §2
# [8] = Other pharmacological studies (cardiovascular, CNS, anti-inflammatory, diuretic); format: in vivo
# Source text: Other Pharmacological Studies: Peptide 96-199 was further evaluated for its cardiovascular, Central Nervous System (CNS), anti-inflammatory, diuretic activities.
# [9] = 50.0 pro (10.0 × 5 d) mg/kg × days
# [10] = 0.5 pro (0.1 × 5 d) mg/kg × days
# [11] = 1.0 pro (0.2 × 5 d) mg/kg × days
# [12] = 2.5 pro (0.5 × 5 d) mg/kg × days
# [13] = 5.0 pro (1.0 × 5 d) mg/kg × days
compound,measurement,setting,value
leucine enkephaline,half life,[1]; with beta-Cyclodextrins,75 m.
same,half life,[1]; without cyclodextrin,44 min
"O=C([O-])c1cc(=O)c2c(OCC(O)COc3cccc4oc(C(=O)[O-])cc(=O)c34)cccc2o1.[Na+].[Na+] [DSCG, disodium cromoglycate, reference compound]",anti PCA activity,[2]; 50 mg/kg by nasal route,81%
same,% Anti-PCA activity,[2]; 50.0 mg/kg IP,77%
same,"% Protection, sensitised mast cells (Immunological: Egg albumin)",[3]; [9],71%
same,"% Protection, normal mast cells (Noninnunological: Comp. 48/80)",[4]; [9],72%
same,% Protection to ileum contraction induced by egg albumin,[5]; concentration 1.0 (μg/mL),No block
same,% Protection to ileum contraction induced by egg albumin,[5]; concentration 2.0 (μg/mL),18%
same,% Protection to ileum contraction induced by egg albumin,[5]; concentration 3.0 (μg/mL),59%
same,"% Protection, Histamine aerosol",[6]; 50 mg/kg ip,17%
same,"% Protection, Egg-albumin aerosol",[7]; 50 mg/kg ip,64%
L-alanyl-glycyl-glycyl-L-aspartyl-sar-L-l ys [96/199],% Anti-PCA activity,[2]; 0.5 mg/kg PO,43%
same,% Anti-PCA activity,[2]; 1.0 mg/kg PO,48%
same,% Anti-PCA activity,[2]; 2.5 mg/kg PO,74%
same,% Anti-PCA activity,[2]; 5.0 mg/kg PO,82%
same,"% Protection, sensitised mast cells (Immunological: Egg albumin)",[3]; [10],34%
same,"% Protection, sensitised mast cells (Immunological: Egg albumin)",[3]; [11],47%
same,"% Protection, sensitised mast cells (Immunological: Egg albumin)",[3]; [12],66%
same,"% Protection, sensitised mast cells (Immunological: Egg albumin)",[3]; [13],72%
same,"% Protection, normal mast cells (Noninnunological: Comp. 48/80)",[4]; [10],39%
same,"% Protection, normal mast cells (Noninnunological: Comp. 48/80)",[4]; [11],55%
same,"% Protection, normal mast cells (Noninnunological: Comp. 48/80)",[4]; [12],77%
same,"% Protection, normal mast cells (Noninnunological: Comp. 48/80)",[4]; [13],84%
same,% Protection to ileum contraction induced by egg albumin,[5]; concentration 1.0 (μg/mL),60%
same,% Protection to ileum contraction induced by egg albumin,[5]; concentration 2.0 (μg/mL),78%
same,% Protection to ileum contraction induced by egg albumin,[5]; concentration 3.0 (μg/mL),92%
same,"% Protection, Histamine aerosol",[6]; 2.5 mg/kg po,Nil
same,"% Protection, Histamine aerosol",[6]; 5.0 mg/kg po,10%
same,"% Protection, Egg-albumin aerosol",[7]; 2.5 mg/kg po,55%
same,"% Protection, Egg-albumin aerosol",[7]; 5.0 mg/kg po,61%
same,any other pharmacological activity,[8]; in vivo,devoid of any other pharmacological activity
same,"cardiovascular, Central Nervous System (CNS), anti-inflammatory, diuretic activities",[8]; up to a dose of 10 mg/kg,No significant effects
